The results in this text go back to US20210395210A1, “INHIBITION OF BACTERIAL CHAPERONIN SYSTEMS” (THE TRUSTEES OF INDIANA UNIVERSITY, priority 2018, published 2021).

Like-named read-outs stand apart in the source and are kept apart here. A value given as a limit tells only on which side of the number the result lay.

Data set [1] addresses T1, E. coli GroEL/ES (Escherichia coli, UniProt P0A6F5).
T1 construct: made in house; host or cells: GroEL in E. coli DH5α; GroES in E. coli BL21 (DE3)
As to the kind of experiment: GroEL/ES-mediated dMDH refolding assay. The conditions noted are these: for log(IC50) GroEL/ES-dMDH Refolding: log of IC50 (μM scale), with standard deviation. The data set is classed as biochemical. In outline:
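MDH activity, read as A340 NADH depletion with mesoxalate after EDTA quench, reports GroEL/ES refolding of guanidine-denatured pig MDH (12 nM) with 50 nM GroEL, 60 nM GroES, 1 mM ATP, 37 °C, pH 7.4.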

In data set [2] the target is T2, native MDH (Sus scrofa, UniProt P00346).
T2 construct: soluble pig heart MDH from Roche, product #10127248001; purchased Roche 10127248001; host or cells: pig heart
T2 sequence (P00346 25-338): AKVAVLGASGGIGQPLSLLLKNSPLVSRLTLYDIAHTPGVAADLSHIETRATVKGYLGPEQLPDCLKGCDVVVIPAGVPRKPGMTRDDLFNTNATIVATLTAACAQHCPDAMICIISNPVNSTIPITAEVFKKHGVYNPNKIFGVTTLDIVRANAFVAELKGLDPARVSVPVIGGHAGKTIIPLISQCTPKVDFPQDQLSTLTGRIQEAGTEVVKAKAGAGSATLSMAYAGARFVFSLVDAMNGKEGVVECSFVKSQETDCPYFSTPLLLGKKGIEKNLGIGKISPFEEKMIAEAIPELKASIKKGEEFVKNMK
As to the kind of experiment: Counter-screen for inhibition of native MDH enzymatic activity. It counts as biochemical, pig. The essentials:
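Fully refolded MDH, produced by a 45 min, 37 °C GroEL/ES reaction and stopped with EDTA, was then dosed with compound (62.5 μM–29 nM, 8 points, 3-fold). Activity was read as A340 NADH decrease until ~90% consumed; reported IC50s are means of at least quadruplicate runs.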

Data set [3] can be described thus: in vitro. The note with it: human. On the procedure: HEK 293 cells were maintained in MEM medium (Corning Cellgro, 10-009 CV) supplemented with 10% FBS (Sigma, F2242). […] Cells at 80% confluence were harvested and diluted in growth medium, then 45 μL of the THLE-3 cells (1,500 cells/well) or HEK 293 cells (1,500 cells/well) were dispensed per well, and plates were sealed with “Breathe Easy” oxygen permeable membranes (Diversified Biotech) and incubated at 37° C., 5% CO2, for 24 h.

The mark [4] stands for this setting: log of IC50 (μM scale), with standard deviation, read-out: log(IC50) Native MDH Reporter (converted).
The mark [5] stands for this setting: read-out: Biochemical Assay IC50 Native MDH Reporter.

T1 sequence (P0A6F5 2-548): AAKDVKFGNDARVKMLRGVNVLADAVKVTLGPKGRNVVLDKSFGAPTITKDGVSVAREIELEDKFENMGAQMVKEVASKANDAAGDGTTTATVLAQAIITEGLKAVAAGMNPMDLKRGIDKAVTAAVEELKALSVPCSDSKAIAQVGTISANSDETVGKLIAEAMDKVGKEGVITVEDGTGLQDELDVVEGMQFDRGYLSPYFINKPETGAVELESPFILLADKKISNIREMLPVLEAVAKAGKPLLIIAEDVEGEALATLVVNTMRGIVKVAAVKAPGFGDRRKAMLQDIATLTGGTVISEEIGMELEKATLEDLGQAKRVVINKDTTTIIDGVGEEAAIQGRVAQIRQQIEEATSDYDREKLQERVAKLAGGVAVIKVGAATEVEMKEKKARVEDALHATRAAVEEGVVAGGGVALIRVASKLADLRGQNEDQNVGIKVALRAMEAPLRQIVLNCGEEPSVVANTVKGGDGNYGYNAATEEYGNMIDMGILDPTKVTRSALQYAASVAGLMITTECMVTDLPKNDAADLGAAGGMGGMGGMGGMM

Turning to `COc1ccc(Br)cc1C(=O)Nc1ccc(Sc2nc3ccccc3s2)c(Cl)c1` [Compound 31, N-(4-(Benzo[d]thiazol-2-ylthio)-3-chlorophenyl)-5-bromo-2-methoxybenzamide], the values for the IC50 in data set [1], in data set [2] (setting [4]) and in data set [2] (setting [5]) were more than 100 µM, more than 63.1 µM and more than 63 µM, respectively. This molecule had a CC50 at 48 h in data set [3] of more than 100 µM.
With `COc1c(Br)cc(Br)cc1C(=O)Nc1ccccc1` [Compound 41, 3,5-Dibromo-2-methoxy-N-phenylbenzamide], the IC50 was more than 100 µM in data set [1], more than 63.1 µM in data set [2] (setting [4]) and more than 63 µM in data set [2] (setting [5]). Further, the “log(IC50) GroEL/ES-dMDH Refolding” value in data set [1] was more than 2. The same molecule registered a CC50 at 48 h in data set [3] of more than 100 µM.
On to `COc1ccc(Br)cc1C(=O)Nc1ccc(Sc2nc3ccccc3s2)cc1` [Compound 35, N-(4-(Benzo[d]thiazol-2-ylthio)phenyl)-5-bromo-2-methoxybenzamide], for which the IC50 was more than 100 µM in data set [1], more than 63.1 µM in data set [2] (setting [4]) and more than 63 µM in data set [2] (setting [5]). For the same molecule, the CC50 at 48 h in data set [3] was more than 100 µM.
For `O=C(Nc1ccccc1)c1ccccc1O` [Compound 16, 2-Hydroxy-N-phenylbenzamide], the “log(IC50) GroEL/ES-dMDH Refolding” value in data set [1] is more than 2. Moreover, the IC50 was more than 100 µM in data set [1] (read-out: Biochemical Assay IC50 GroEL/ES-dMDH refolding); more than 63 µM in data set [2] (Biochemical Assay IC50 Native MDH Reporter); more than 63.1 µM in data set [2] (log(IC50) Native MDH Reporter, log of IC50 (μM scale), with standard deviation). The same molecule showed a CC50 at 48 h in data set [3] of 67.6 µM.
As for `COc1ccc(Br)cc1C(=O)Nc1ccccc1` [Compound 43, 5-Bromo-2-methoxy-N-phenylbenzamide], the IC50 was more than 100 µM in data set [1], more than 63.1 µM in data set [2] (setting [4]) and more than 63 µM in data set [2] (setting [5]). The “log(IC50) GroEL/ES-dMDH Refolding” value in data set [1] was more than 2. Also, the CC50 at 48 h in data set [3] is more than 100 µM.
